For data set [1] the following is noted: instrument: DT, single field, calibrated with Agilent tune mix (Agilent).
The conditions of data set [2]: instrument: DT, stepped-field.
For data set [3] the following is noted: instrument: TW, calibrated with phosphatidylcholines (ESI+) and phosphatidylethanolamines (ESI-).
For data set [4] the following is noted: instrument: DT, stepped-field. This is another data set of the same source.
For data set [5] the following is noted: [M+Na]+; instrument: DT; stepped-field.

Here are results for twelve compounds from the C3SDB collision cross section collection.

Values joined by “and” are separate entries in the source; they are usually repeats but may differ in a detail not shown here. Equal entries are not always repeated.

As to `CCCCCC/C=C/CCCCCCCC(=O)OC[C@@H](O)COP(=O)([O-])OCC[N+](C)(C)C` [LPC(16:1)], the “collision cross section (N2)” value in data set [1] ([M+HCOO]-) is given as 231.3 Å²; in data set [2] ([M+H]+), 227.7 Å²; in data set [3] ([M+H]+) it was 223.4 Å².
Turning to `CCCCCCCCCCCCCCCCCC(=O)OC[C@@H](O)COP(=O)(O)O[C@H]1C(O)C(O)C(O)[C@@H](O)C1O` (some centres undefined) [LPI(18:0)], the “collision cross section (N2)” value in data set [1] ([M+H]+) is reported as 244.7 Å²; in data set [1] ([M-H]-), 236.8 Å²; in data set [2] ([M-H]-), 236.1 Å².
Consider `CCCCC/C=C\C/C=C\CCCCCCCCCC(=O)O[C@H](COC(=O)CCCCCCCCCCC)COP(=O)([O-])OCC[N+](C)(C)C` [PC(16:1/16:1)], for which the “collision cross section (N2)” value in data set [4] ([M+H]+) is 280.16 Å²; in data set [4] ([M+Na]+), 286.9 Å²; in data set [2] ([M+H]+), 287.8 Å².
Regarding `CCCCC/C=C\C/C=C\CCCCCCCCCCCC(=O)O[C@H](COC(=O)CCCCCCCCCCCCC)COP(=O)([O-])OCC[N+](C)(C)C` [PC(18:1/18:1)], the “collision cross section (N2)” value in data set [4] ([M+H]+) is 296.42 Å² and 297.29 Å²; in data set [4] ([M+Na]+), 298.03 Å² and 300.74 Å²; in data set [2] ([M+H]+) it was 302.7 Å² and 302.8 Å².
As for `CCCCC/C=C\C/C=C\CCCCCCCC(=O)OC[C@H](COP(=O)([O-])OCC[N+](C)(C)C)OC(=O)CCCCCCCCC/C=C\CCCCCC` [PC(36:3)], the “collision cross section (N2)” value was found to be 289.4 Å² in data set [1] ([M+HCOO]-); 288.8 Å² in data set [1] ([M+H]+); 291.9 Å² in data set [1] ([M+Na]+); 295.8 Å² in data set [2] ([M+H]+); 291.6 Å² in data set [3] ([M+CH3COO]-); 285.5 Å² in data set [3] ([M+H]+).
With `CCCCC/C=C\C/C=C\C/C=C\CCCCC(=O)O[C@H](COCCCCCCCCCCCCCCCC)COP(=O)(O)OCCN` [PE(o34:3)], the figures for the “collision cross section (N2)” value in data set [2] ([M-H]-) and in data set [5] were 266.5 Å² and 278 Å², respectively.
With `CC/C=C\C/C=C\C/C=C\CCCCCCCC(=O)O[C@H](COC(=O)CCCCCCCCC/C=C\CCCCCCCC)COP(=O)(O)OC[C@@H](O)CO` [PG(38:4)], the “collision cross section (N2)” value came out at 294.5 Å² in data set [1] ([M+NH4]+); 290.2 Å² in data set [1] ([M+Na]+); 278.7 Å² in data set [1] ([M-H]-); 285.6 Å² in data set [2] ([M-H]-); 287.8 Å² in data set [3] ([M+Na]+); 277.7 Å² in data set [3] ([M-H]-).
With `CCCCCCCC/C=C\CCCCCCCCCC(=O)O[C@H](COC(=O)CCCCCCCCCCC)COP(=O)(O)O[C@H]1C(O)C(O)C(O)[C@@H](O)C1O` (some centres undefined) [PI(16:0/16:1)], the “collision cross section (N2)” value in data set [2] ([M-H]-) was 284.6 Å².
For `CCCC/C=C\CCCCCCCC(=O)OC[C@H](COP(=O)(O)O[C@H]1C(O)C(O)C(O)[C@@H](O)C1O)OC(=O)CCCCCCC/C=C\CCCCCCCC` (some centres undefined) [PI(16:1/16:1)], the “collision cross section (N2)” value in data set [2] ([M-H]-) is 282.9 Å².
The same measure, in the same setting: to `CCCC/C=C\CCCCCCCC(=O)OC[C@H](COP(=O)(O)O[C@H]1C(O)C(O)C(O)[C@@H](O)C1O)OC(=O)CCCCCCCCC/C=C\CCCCCCCCCC` (some centres undefined) [PI(18:1/18:1)] belongs 295.9 Å² and 296.2 Å².
For `CCCCC/C=C\C/C=C\C/C=C\CCCCC(=O)O[C@H](COC(=O)CCCCCCCCC/C=C\C/C=C\CCCCC)COP(=O)(O)O[C@H]1C(O)C(O)C(O)[C@@H](O)C1O` (some centres undefined) [PI(38:5)], the “collision cross section (N2)” value in data set [1] ([M+H]+) was 299.9 Å²; in data set [1] ([M+Na]+), 298.7 Å²; in data set [1] ([M-H]-), 291.8 Å²; in data set [2] ([M-H]-), 302 Å² and 299.6 Å²; in data set [3] ([M+Na]+) it was 294.5 Å²; in data set [3] ([M-H]-), 290.9 Å².
Turning to `CCCCC/C=C\C/C=C\CCCCCCCCCCCC(=O)O[C@H](COC(=O)CCCCCCC/C=C\C/C=C\CCCCC)COP(=O)(O)OC[C@H](N)C(=O)O` [PS(40:4)], the “collision cross section (N2)” value in data set [1] ([M+H]+) is reported as 293.2 Å²; in data set [1] ([M+Na]+), 297.6 Å²; in data set [1] ([M-H]-) it was 286.9 Å²; in data set [2] ([M-H]-), 297.6 Å².
